Measured values as given in PubChem BioAssay AID2060625 (Molecular Pharmacology Branch, DTP, NCI, 2025).

Test system: 186277-243-T-J2-PDC spheroids with HUVEC/MSC, viability
Test: Anticancer human tumor 186277-243-T-J2-PDC patient-derived colon adenocarcinoma cell line growth inhibition [CLK]
Settings: for viability, T/C: stronger effect = lower value
Source text: A high-throughput screen of multi-cell type tumor spheroids was designed to identify active combinations of […] and targeted small molecules. Complex spheroids include a stromal component modeled by human endothelial cells (HUVEC) and fibroblasts modeled by human mesenchymal stem cells (MSCs). The concentration ranges selected for each drug and investigational agent were based upon clinically achievable concentrations if the clinical Cmax of the agent was known.
Compounds. The drugs and investigational agents: cirtuvivint (SM08502; NSC835563), CC-671 (NSC850746), vemurafenib (NSC761431), tapotoclax (NSC804041), sotorasib (NSC818433), adagrasib (NSC831453), MRTX-1133 (NSC836407), BAY2416964 (NSC825713), copanlisib (NSC816437), inavolisib (NSC800729), abemaciclib (NSC768073), osimertinib (NSC779217), entinostat (NSC756642), eltanexor (KPT-8602, NSC794443), venetoclax (NSC766270), ceralasertib (NSC777638), bortezomib (NSC756655), olaparib (NSC753686), talazoparib (NSC767125), alisertib (NSC759677), peposertib (NSC802822), gemcitabine (NSC613327), 5-fluorouracil (NSC19893), SN-38 (NSC673596), oxaliplatin (NSC266046), paclitaxel (NSC125973), and doxorubicin (NSC123127), were obtained from the National Cancer Institute (NCI) Developmental Therapeutics Program Chemical Repository. The FDA-approved anticancer drug set is available from the Developmental Therapeutics Program at https://dtp.cancer.gov/organization/dscb/obtaining/available plates.htm. […] The stock solutions were prepared in dimethyl sulfoxide (DMSO, Sigma-Aldrich, St. Louis, MO, cat. D2650), except for the platinum complexes which were prepared in saline (Quality Biological, Gaithersburg, MD, cat. 114-055-101), at 800-fold the tested concentration and stored at -70 degrees C prior to their use. All drugs and investigational agents were tested over a range starting from a high concentration at or near the clinical Cmax and decreasing in half-log increments. If the clinical Cmax for an agent had not been determined, the highest concentration tested was 10 microM.
Cell Culture. All cells were maintained in an incubator at 37 degrees C and 5% CO2 with 95% humidity. The PDC lines were cultured according to standard operating procedures established by the NCI PDMR. Briefly, all PDCs were thawed and cultured in Matrigel-coated flasks prepared with a working solution of 1X Ham's F-12 nutrient mix, without supplementation (Invitrogen, Waltham, MA, cat. 11765054), 100 U/mL penicillin-streptomycin (Invitrogen, cat. 15140122), and 2.5% Matrigel (Corning Inc., Corning, NY, cat. 354248) for the first three passages. The 947758-054-R-J2-PDC line was cultured in 6B/Colon 1A media, which includes advanced DMEM/F-12 (Thermo Fisher Scientific, cat. 12634028), 10 mM HEPES (Thermo Fisher Scientific, cat. 15630080), 1X GlutaMAX supplement (Thermo Fisher Scientific, cat. 35050061), 0.1 mg/mL primocin (InvivoGen, cat. ant-pm-2), 10% defined fetal bovine serum, heat inactivated (HyClone Laboratories Inc., cat. SH30070.03HI), 1.25 mM N-Acetyl-L-cysteine (Sigma-Aldrich, cat. A9165), 10 mM nicotinamide (Sigma-Aldrich, cat. N0636), 1X B-27 supplement (Thermo Fisher Scientific, cat. 17504044), 1X N-2 supplement (Thermo Fisher Scientific, cat. 17502048), and 10 microM Y-27632 dihydrochloride (Tocris Bioscience, cat. 1254). The 876862-298-R-J1-PDC was cultured in 6E media, which includes all 6B/Colon 1A media components plus 50% L-WRN conditioned media (ATCC, cat. CRL-3276), 50 ng/mL recombinant human EGF recombinant protein (hEGF; Thermo Fisher Scientific, cat. PHG0311), 10 ng/mL recombinant human fibroblast growth factor 10 (hGFG-10; PeproTech, cat. 100-26), 1 ng/mL recombinant human fibroblast growth factor 2 (hFGF-2; PeproTech, cat. 100-18B), and 1 µM prostaglandin E2 (PGE2; Tocris, cat. 2296). The 227483-062-R1-J1-PDC line was cultured in Panc media, containing all 6E components except hFGF-2, with the addition of 500 nM SB-431542 (Selleckchem, cat. S1067) and 10 nM gastrin (Tocris, cat. 3006). […]
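Also: compound exposure lasted seven days before readout.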
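For viability, T/C in this document: 100% = DMSO vehicle control wells.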

`CN1CCN(c2cc(C(=O)Nc3cc4cc(-c5cnn(C)c5)ccc4cn3)ccn2)CC1` was tested, and the viability, T/C (compound 0.316 µM) was 23.7% [middle of 11 runs], the viability, T/C (compound 1 µM) was 0.99% [middle of 10 runs] and the viability, T/C (compound 3.16 µM) was 1.22% [middle of 11 runs]. The viability, T/C (compound 10 µM) was 1.7% [middle of 11 runs] and the IC50 (compound alone, run of 08/14/2023) was 192 nM [middle of 11 runs].
With `CNC(=O)c1ccc(Nc2nc(OC3CCCC3)c3c(-c4ccc5nc(C)oc5c4)c[nH]c3n2)c(OC)c1` the viability, T/C (compound 0.1 µM) was 67.9% [middle of 12 runs], the viability, T/C (compound 0.316 µM) was 46.2% [middle of 12 runs] and the viability, T/C (compound 1 µM) was 33% [middle of 12 runs]. For the same compound, the viability, T/C (compound 3.16 µM) was 32.1% [middle of 12 runs], the viability, T/C (compound 10 µM) was 33.9% [middle of 11 runs] and the IC50 (compound alone, run of 08/15/2023) was 241 nM [middle of 12 runs].
With `COc1ccc([C@@H](O)c2cc(-c3ncnc4cc(N5CCOCC5)ccc34)c(F)cc2Cl)nn1` the viability, T/C (compound 0.0316 µM) was 95.1%, the viability, T/C (compound 0.1 µM) was 96.1% and the viability, T/C (compound 0.316 µM) was 117%. It also gave a viability, T/C (compound 1 µM) of 85.1%, a viability, T/C (compound 3.16 µM) of 87.2% and a viability, T/C (compound 10 µM) of 49.2%. It also gave an IC50 (curve of compound) of 9.91 µM.
`C=CC(=O)N1CCN(c2nc(=O)n(-c3c(C)ccnc3C(C)C)c3nc(-c4c(O)cccc4F)c(F)cc23)C(C)C1` (stereo not given) + CN1CCN(c2cc(C(=O)Nc3cc4cc(-c5cnn(C)c5)ccc4cn3)ccn2)CC1 showed an IC50 (curve of first compound, second compound 0.0316 µM) of over 10 µM, an IC50 (curve of first compound, second compound 0.1 µM) of over 10 µM and an IC50 (curve of first compound, second compound 0.316 µM) of under 0.0316 µM. For the same compound, the IC50 (curve of first compound, second compound 1 µM) was under 0.0316 µM, the IC50 (curve of first compound, second compound 3.16 µM) was under 0.0316 µM and the IC50 (curve of first compound, second compound 10 µM) was under 0.0316 µM. The viability, T/C (second compound 0.0316 µM, first compound 0.0316 µM) was 97.2%, the viability, T/C (second compound 0.0316 µM, first compound 0.1 µM) was 108% and the viability, T/C (second compound 0.0316 µM, first compound 0.316 µM) was 102%. It also gave a viability, T/C (second compound 0.0316 µM, first compound 1 µM) of 98.8%, a viability, T/C (second compound 0.0316 µM, first compound 3.16 µM) of 102% and a viability, T/C (second compound 0.0316 µM, first compound 10 µM) of 86.6%. For the same compound, the viability, T/C (second compound 0.1 µM, first compound 0.0316 µM) was 102%, the viability, T/C (second compound 0.1 µM, first compound 0.1 µM) was 81% and the viability, T/C (second compound 0.1 µM, first compound 0.316 µM) was 90.5%. For the same compound, the viability, T/C (second compound 0.1 µM, first compound 1 µM) was 84.1%, the viability, T/C (second compound 0.1 µM, first compound 3.16 µM) was 86.2% and the viability, T/C (second compound 0.1 µM, first compound 10 µM) was 72.4%. The viability, T/C (second compound 0.316 µM, first compound 0.0316 µM) was 29.7%, the viability, T/C (second compound 0.316 µM, first compound 0.1 µM) was 28.8% and the viability, T/C (second compound 0.316 µM, first compound 0.316 µM) was 29.5%. The viability, T/C (second compound 0.316 µM, first compound 1 µM) was 24.8%, the viability, T/C (second compound 0.316 µM, first compound 3.16 µM) was 30.8% and the viability, T/C (second compound 0.316 µM, first compound 10 µM) was 11%. For the same compound, the viability, T/C (second compound 1 µM, first compound 0.0316 µM) was 0.72%, the viability, T/C (second compound 1 µM, first compound 0.1 µM) was 1.4% and the viability, T/C (second compound 1 µM, first compound 0.316 µM) was 0.59%. The viability, T/C (second compound 1 µM, first compound 1 µM) was 1.74%, the viability, T/C (second compound 1 µM, first compound 3.16 µM) was 1.4% and the viability, T/C (second compound 1 µM, first compound 10 µM) was 1.65%. It also gave a viability, T/C (second compound 3.16 µM, first compound 0.0316 µM) of 0.98%, a viability, T/C (second compound 3.16 µM, first compound 0.1 µM) of 1.19% and a viability, T/C (second compound 3.16 µM, first compound 0.316 µM) of 1.22%. For the same compound, the viability, T/C (second compound 3.16 µM, first compound 1 µM) was 2.38%, the viability, T/C (second compound 3.16 µM, first compound 3.16 µM) was 2.84% and the viability, T/C (second compound 3.16 µM, first compound 10 µM) was 1.94%. It also gave a viability, T/C (second compound 10 µM, first compound 0.0316 µM) of 0.63%, a viability, T/C (second compound 10 µM, first compound 0.1 µM) of 0.71% and a viability, T/C (second compound 10 µM, first compound 0.316 µM) of 1.36%. The viability, T/C (second compound 10 µM, first compound 1 µM) was 1.03%, the viability, T/C (second compound 10 µM, first compound 3.16 µM) was 2.23% and the viability, T/C (second compound 10 µM, first compound 10 µM) was 1.12%.
